{"source": "patent US7745450B2", "about": "“Pyrazolo[4,3-d]pyrimidines, processes for their preparation and methods for therapy” (Institute of Experimental Botany, priority 2002, dated 2010)", "test_system": "Cytokinin-dependent tobacco callus Nicotiana tabacum L. cv. Wisconsins 38", "assay": "Tobacco callus bioassay for cytotoxicity (herbicidal activity)", "format": "cell-based", "summary_of_the_method": "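Compounds were prepared in DMSO as a 10^−3 M stock in water. Growth inhibition was scored from fresh callus weight gain after four weeks, with five replicates and the test run at least twice.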", "data": [{"substance": "5-(3-aminopropylamino)-7-benzylamino-3-isopropylpyrazolo[4,3-d]pyrimidine [Compound 17]", "values": [{"measurement": "Inhibition of tobacco callus growth", "result": "inhibitory effect"}]}]}
